Experimental data: patent US10717716B2, “1,3,4-oxadiazole derivative compounds as histone deacetylase 6 inhibitor, and the pharmaceutical composition comprising the same” (Chong Kun Dang Pharmaceutical Corp., priority 2015, dated 2020)

Key:
human recombinant HDAC1 = biological target: T1, human recombinant HDAC1 (Homo sapiens, UniProt Q13547); assay: HDAC1 enzyme activity inhibition assay (HDAC Fluorimetric Drug Discovery Kit); format: biochemical; conditions: 30° C. 60 minutes
T1 construct: purchased Enzo Life Science BML-SE456
T1 sequence (Q13547 whole entry): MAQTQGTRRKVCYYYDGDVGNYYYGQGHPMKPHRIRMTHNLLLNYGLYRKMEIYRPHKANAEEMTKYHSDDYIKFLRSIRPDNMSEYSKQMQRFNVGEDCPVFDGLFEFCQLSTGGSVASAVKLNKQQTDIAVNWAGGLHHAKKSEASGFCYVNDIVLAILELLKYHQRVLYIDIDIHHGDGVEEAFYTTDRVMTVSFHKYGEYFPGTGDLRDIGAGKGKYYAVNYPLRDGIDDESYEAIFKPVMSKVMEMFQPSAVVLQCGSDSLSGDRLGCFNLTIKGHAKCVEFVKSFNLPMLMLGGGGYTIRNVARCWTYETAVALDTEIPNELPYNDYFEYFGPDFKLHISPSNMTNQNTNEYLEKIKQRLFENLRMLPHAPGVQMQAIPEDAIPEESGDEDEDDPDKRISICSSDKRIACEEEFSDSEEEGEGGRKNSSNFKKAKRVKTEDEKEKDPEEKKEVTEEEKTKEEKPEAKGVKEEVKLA
In short: (§1)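 Human recombinant HDAC1 or HDAC6 (0.3 μg) reacted with 10 μM Fluor de Lys-SIRT1 substrate and 5-fold compound dilutions for 60 min at 30 °C. Developer II added for 30 min, fluorescence read at Ex 360/Em 460; IC50 calculated from the readings.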

human recombinant HDAC6 = biological target: T2, human recombinant HDAC6 (Homo sapiens, UniProt Q9UBN7); assay: HDAC6 enzyme activity inhibition assay (HDAC Fluorimetric Drug Discovery Kit); format: biochemical; conditions: for HDAC6 selectivity (fold): HDAC6 over HDAC1; for IC50: human recombinant HDAC6, same protocol as HDAC1, read-out: HDAC6
T2 construct: purchased Calbiochem 382180
T2 sequence (Q9UBN7 1-1215): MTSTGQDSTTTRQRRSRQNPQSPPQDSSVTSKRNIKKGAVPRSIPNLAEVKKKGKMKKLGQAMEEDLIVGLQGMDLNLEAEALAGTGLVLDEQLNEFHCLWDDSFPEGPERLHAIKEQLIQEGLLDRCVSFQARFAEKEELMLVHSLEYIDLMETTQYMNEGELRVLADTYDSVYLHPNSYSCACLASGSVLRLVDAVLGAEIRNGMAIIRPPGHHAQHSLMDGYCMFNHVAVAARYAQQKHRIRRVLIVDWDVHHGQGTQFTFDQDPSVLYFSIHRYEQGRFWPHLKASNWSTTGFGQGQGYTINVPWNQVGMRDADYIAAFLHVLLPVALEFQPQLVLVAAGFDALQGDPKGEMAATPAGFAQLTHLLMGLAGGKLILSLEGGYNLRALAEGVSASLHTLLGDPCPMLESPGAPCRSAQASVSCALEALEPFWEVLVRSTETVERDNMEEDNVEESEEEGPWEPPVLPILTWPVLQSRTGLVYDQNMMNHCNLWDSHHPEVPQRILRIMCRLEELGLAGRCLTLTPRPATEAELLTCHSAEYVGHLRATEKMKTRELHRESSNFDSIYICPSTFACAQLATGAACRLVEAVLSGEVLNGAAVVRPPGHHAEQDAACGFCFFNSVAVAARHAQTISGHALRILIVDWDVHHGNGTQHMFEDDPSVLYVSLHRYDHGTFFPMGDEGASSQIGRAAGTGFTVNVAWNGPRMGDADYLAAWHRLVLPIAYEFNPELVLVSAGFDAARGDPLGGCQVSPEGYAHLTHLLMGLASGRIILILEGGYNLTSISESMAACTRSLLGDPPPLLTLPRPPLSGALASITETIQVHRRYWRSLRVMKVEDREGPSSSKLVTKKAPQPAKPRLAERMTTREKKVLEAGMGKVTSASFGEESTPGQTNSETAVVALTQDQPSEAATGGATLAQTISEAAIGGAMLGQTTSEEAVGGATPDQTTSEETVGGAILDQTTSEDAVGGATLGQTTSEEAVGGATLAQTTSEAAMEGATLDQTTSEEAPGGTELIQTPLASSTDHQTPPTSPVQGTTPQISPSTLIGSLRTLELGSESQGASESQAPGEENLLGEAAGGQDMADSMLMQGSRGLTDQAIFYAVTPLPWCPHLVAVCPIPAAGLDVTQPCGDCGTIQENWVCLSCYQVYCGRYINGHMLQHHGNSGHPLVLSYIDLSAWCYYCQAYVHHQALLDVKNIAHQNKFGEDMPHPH
In short: as §1

[1] = human recombinant HDAC1, Fluor de Lys substrate 10 μM

Row | Structure (SMILES) | IC50 (human recombinant HDAC1; [1]) [µM] | HDAC6 selectivity (fold) (human recombinant HDAC6) | IC50 (human recombinant HDAC6) [nM] | IC50 (human recombinant HDAC1; human recombinant HDAC1, Fluor de Lys substrate) [µM]
1 | CCN1CCN(C(=O)N(Cc2ccc(-c3nnc(C(F)(F)F)o3)cc2F)c2ccc(Cl)cc2)CC1 [Compound 21863, N-(4-Chlorophenyl)-4-ethyl-N-(2-fluoro-4-(5-(trifluoromethyl)-1,3,4-oxadiazol-2-yl)benzyl)piperazine-1-carboxamide] | 25.8 | 65 | 400 | 
2 | O=C(N1CCN(C2COC2)CC1)N(Cc1ccc(-c2nnc(C(F)F)o2)cn1)c1ccccc1 [Compound 21905, N-((5-(5-(Difluoromethyl)-1,3,4-oxadiazol-2-yl)pyridin-2-yl)methyl)-4-(oxetan-3-yl)-N-phenylpiperazine-1-carboxamide] | 56.1 | 1454 | 39 | 
3 | O=C(N1CCS(=O)(=O)CC1)N(Cc1ccc(-c2nnc(C(F)(F)F)o2)cc1F)c1ccc2c(c1)CCO2 [Compound 21543, N-(2,3-dihydrobenzofuran-5-yl)-N-(2-fluoro-4-(5-(trifluoromethyl)-1,3,4-oxadiazol-2-yl)benzyl)thiomorpholine-4-carboxamide 1,1-dioxide] | 4.75 | 64 | 73 | 
4 | O=C(N1CCS(=O)(=O)CC1)N(Cc1ccc(-c2nnc(C(F)(F)F)o2)cc1)c1ccc(-c2ccc3c(c2)OCO3)cc1 [Compound 21493, N-(4-(benzo[d][1,3]dioxol-5-yl)phenyl)-N-(4-(5-(trifluoromethyl)-1,3,4-oxadiazol-2-yl)benzyl)thiomorpholine-4-carboxamide 1,1-dioxide] | 1.74 | 6 | 313 | 
5 | CN(C)[C@@H]1CCN(C(=O)N(Cc2ccc(-c3nnc(C(F)F)o3)cc2F)c2ccc3cnn(C)c3c2)C1 [Compound 21736, (R)—N-(4-(5-(difluoromethyl)-1,3,4-oxadiazol-2-yl)-2-fluorobenzyl)-3-(dimethylamino)-N-(1-methyl-1H-indazol-6-yl)pyrrolidine-1-carboxamide] | 17.7 | 432 | 41 | 
6 | Cn1ncc2ccc(N(Cc3ccc(-c4nnc(C(F)(F)F)o4)cc3F)C(=O)N3CCS(=O)(=O)CC3)cc21 [Compound 21545, N-(2-fluoro-4-(5-(trifluoromethyl)-1,3,4-oxadiazol-2-yl)benzyl)-N-(1-methyl-1H-indazol-6-yl)thiomorpholine-4-carboxamide 1,1-dioxide] | 4.44 | 85 | 52 | 
7 | O=C(N1CCOCC1)N(Cc1ccc(-c2nnc(C(F)(F)F)o2)cc1)c1ccccc1 [Compound 21249, N-phenyl-N-(4-(5-(trifluoromethyl)-1,3,4-oxadiazol-2-yl)benzyl)morpholine-4-carboxamide] | 10 | 115 | 87 | 
8 | O=C(N1CCOCC1)N(Cc1ccc(-c2nnc(C(F)(F)F)o2)cn1)c1ccc(F)cc1 [Compound 21840, N-(4-fluorophenyl)-N-((5-(5-(trifluoromethyl)-1,3,4-oxadiazol-2-yl)pyridin-2-yl)methyl) morpholine-4-carboxamide] | 31.9 | 170 | 188 | 
9 | CN(C)[C@@H]1CCN(C(=O)N(Cc2ccc(-c3nnc(C(F)F)o3)cc2F)c2ccc(F)cc2Cl)C1 [Compound 21652, (R)—N-(2-chloro-4-fluorophenyl)-N-(4-(5-(difluoromethyl)-1,3,4-oxadiazol-2-yl)-2-fluorobenzyl)-3-(dimethylamino)pyrrolidine-1-carboxamide] | 36.5 | 787 | 46 | 
10 | O=C(N1CCS(=O)(=O)CC1)N(Cc1ccc(-c2nnc(C(F)F)o2)cc1F)c1ccc(CN2CCN(C3COC3)CC2)cc1 [Compound 21896, N-(4-(5-(difluoromethyl)-1,3,4-oxadiazol-2-yl)-2-fluorobenzyl)-N-(4-((4-(oxetan-3-yl)piperazin-1-yl)methyl)phenyl)thiomorpholine-4-carboxamide 1,1-dioxide] | 28.5 | 82 | 346 | 
11 | CCN1CCN(C(=O)N(Cc2ccc(-c3nnc(C(F)(F)F)o3)cc2F)c2ccc(OC)cc2)CC1 [Compound 21875, 4-Ethyl-N-(2-fluoro-4-(5-(trifluoromethyl)-1,3,4-oxadiazol-2-yl)benzyl)-N-(4-methoxyphenyl)piperazine-1-carboxamide] | 9 | 23 | 386 | 
12 | O=C(N1CC[C@@H](O)C1)N(Cc1ccc(-c2nnc(C(F)(F)F)o2)cc1F)c1ccc(F)c(Cl)c1 [Compound 21664, (R)—N-(3-chloro-4-fluorophenyl)-N-(2-fluoro-4-(5-(trifluoromethyl)-1,3,4-oxadiazol-2-yl)benzyl)-3-hydroxypyrrolidine-1-carboxamide] | 17.1 | 114 | 151 | 
13 | O=C(N1CCOCC1)N(Cc1ccc(-c2nnc(C(F)(F)F)o2)cc1F)c1ccc(Cl)cc1 [Compound 21850, N-(4-chlorophenyl)-N-(2-fluoro-4-(5-(trifluoromethyl)-1,3,4-oxadiazol-2-yl)benzyl)morpholine-4-carboxamide] | 68.6 | 157 | 436 | 
14 | O=C(N1CCS(=O)(=O)CC1)N(Cc1ccc(-c2nnc(C(F)(F)F)o2)cc1F)c1ccc(-c2cccnc2)cc1 [Compound 21517, N-(2-fluoro-4-(5-(trifluoromethyl)-1,3,4-oxadiazol-2-yl)benzyl)-N-(4-(pyridin-3-yl)phenyl)thiomorpholine-4-carboxamide 1,1-dioxide] | 2.92 | 31 | 93 | 
15 | O=C(N1CCOCC1)N(Cc1ccc(-c2nnc(C(F)(F)F)o2)cn1)c1cccc(Cl)c1 [Compound 21852, N-(3-chlorophenyl)-N-((5-(5-(trifluoromethyl)-1,3,4-oxadiazol-2-yl)pyridin-2-yl)methyl) morpholine-4-carboxamide] | 15.3 | 118 | 131 | 
16 | CCN1CCN(C(=O)N(Cc2ccc(-c3nnc(C(F)(F)F)o3)cn2)c2cccc(F)c2)CC1 [Compound 21867, 4-Ethyl-N-(3-fluorophenyl)-N-((5-(5-(trifluoromethyl)-1,3,4-oxadiazol-2-yl)pyridin-2-yl)methyl)piperazine-1-carboxamide] | 35.9 | 489 | 73 | 
17 | CCN1CCN(C(=O)N(Cc2ccc(-c3nnc(C(F)F)o3)cc2)c2ccc(OC)cc2)CC1 [Compound 21892, N-(4-(5-(Difluoromethyl)-1,3,4-oxadiazol-2-yl)benzyl)-4-ethyl-N-(4-methoxyphenyl)piperazine-1-carboxamide] | 48.7 | 548 | 89 | 
18 | O=C(N1CCN(C2COC2)CC1)N(Cc1ccc(-c2nnc(C(F)F)o2)cc1F)c1cccc(Cl)c1 [Compound 21943, N-(3-Chlorophenyl)-N-(4-(5-(difluoromethyl)-1,3,4-oxadiazol-2-yl)-2-fluorobenzyl)-4-(oxetan-3-yl)piperazine-1-carboxamide] |  | 611 | 48 | 29.6
19 | CCN1CCN(C(=O)N(Cc2ccc(-c3nnc(C(F)(F)F)o3)cc2F)c2ccc(F)cc2)CC1 [Compound 21869, 4-Ethyl-N-(2-fluoro-4-(5-(trifluoromethyl)-1,3,4-oxadiazol-2-yl)benzyl)-N-(4-fluorophenyl)piperazine-1-carboxamide] | 18.9 | 137 | 138 | 
20 | CCN1CCN(C(=O)N(Cc2ccc(-c3nnc(C(F)(F)F)o3)cc2)c2ccc(OC)cc2)CC1 [Compound 21874, 4-Ethyl-N-(4-methoxyphenyl)-N-(4-(5-(trifluoromethyl)-1,3,4-oxadiazol-2-yl)benzyl)piperazine-1-carboxamide] | 6.17 | 20 | 308 | 
